Test results as given in patent publication US20230150929A1, “SELECTIVE NON-CYCLIC NUCLEOTIDE ACTIVATORS FOR THE CAMP SENSOR EPAC1” (The Board of Regents of The University of Texas System, priority 2020, published 2023).

Assays:
EPAC1-CNBD = molecular target: T1, EPAC1-CNBD (Homo sapiens, UniProt O95398); assay: 8-NBD-cAMP competition binding assay, EPAC1-CNBD; conditions: for RFI (%) (relative fluorescence intensity), Table 4: compound 10 µM, EPAC1-CNBD 0.8 µM, 8-NBD-cAMP 62.5 nM, mean ± SEM, lower RFI = stronger binding
T1 sequence (O95398 169-318 isoform O95398-3): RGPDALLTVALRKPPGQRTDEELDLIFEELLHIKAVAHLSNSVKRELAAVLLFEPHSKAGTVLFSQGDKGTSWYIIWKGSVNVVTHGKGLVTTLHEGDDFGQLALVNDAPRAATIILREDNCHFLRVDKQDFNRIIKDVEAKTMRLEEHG

EPAC1 [1] = molecular target: T2, EPAC1 (Homo sapiens, UniProt O95398); assay: In vitro GEF screen (EPAC1 activation assay); format: biochemical; set-up: expressed in transfected cells; host or cells: U2OS cells (from Professor Holger Rehmann, University of Utrecht); conditions: 10 µM, FIG. 6
T2 sequence (O95398 1-923): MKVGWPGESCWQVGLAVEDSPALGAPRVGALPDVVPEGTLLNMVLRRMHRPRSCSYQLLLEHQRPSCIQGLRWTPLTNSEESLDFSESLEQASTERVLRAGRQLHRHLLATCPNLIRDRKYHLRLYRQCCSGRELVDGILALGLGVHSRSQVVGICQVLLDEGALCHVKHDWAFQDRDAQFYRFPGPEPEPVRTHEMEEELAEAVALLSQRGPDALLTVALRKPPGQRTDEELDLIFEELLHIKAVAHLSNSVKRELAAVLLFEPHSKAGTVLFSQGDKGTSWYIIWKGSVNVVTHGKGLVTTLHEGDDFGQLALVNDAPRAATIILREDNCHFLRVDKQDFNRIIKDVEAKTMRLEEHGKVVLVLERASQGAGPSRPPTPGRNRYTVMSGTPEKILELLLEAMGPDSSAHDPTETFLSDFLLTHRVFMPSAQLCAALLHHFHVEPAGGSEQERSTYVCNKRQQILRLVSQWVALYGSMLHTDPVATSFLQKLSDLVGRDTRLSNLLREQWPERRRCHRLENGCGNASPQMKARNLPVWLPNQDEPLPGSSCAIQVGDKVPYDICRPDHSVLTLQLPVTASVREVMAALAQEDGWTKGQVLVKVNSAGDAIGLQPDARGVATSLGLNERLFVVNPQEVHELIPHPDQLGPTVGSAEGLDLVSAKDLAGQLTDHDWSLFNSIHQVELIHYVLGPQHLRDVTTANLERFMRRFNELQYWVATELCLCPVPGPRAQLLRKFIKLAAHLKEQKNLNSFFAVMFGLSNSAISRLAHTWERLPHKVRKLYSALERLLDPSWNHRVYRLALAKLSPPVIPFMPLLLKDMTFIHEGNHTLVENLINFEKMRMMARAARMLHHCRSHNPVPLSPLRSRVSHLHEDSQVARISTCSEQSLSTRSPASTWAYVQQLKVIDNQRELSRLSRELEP
Method: FIGS. 6A-B. Identification of compounds including 25g (PW0381) 25q (PW0521) 25n (PW0577), 25u (PW0606), 25e (PW0624) and 25f (PW0625) as EPAC1 activators in an in vitro GEF screen. […] Selected compounds have been highlighted as indicated.
(§1) Series Expansion and EPAC1 vs EPAC2 Selectivity. GEF assay was used to further screen all newly synthesis analogues at 10 µM, to identify additional activating compounds to expand the series of EPAC1 agonists (FIG. 6). […] Having now identified an expanded exemplary series of compounds as potential EPAC1 activators the ability of 25e, 25f, 25g, 25n and 25u to activate EPAC1 and EPAC2 in cellular Rap1 activation assays (FIG. 7) were compared. For these U2OS cells transfected with either EPAC1 or EPAC2 (FIG. 7) was used. […] Densitometry was carried out on all immunoblots and the ratio of EPAC1 to EPAC2 activation was calculated and presented in a bar graph in FIG. 8.

EPAC1 [2] = molecular target: T2, EPAC1; assay: Active Rap1 pull-down in U2OS cells stably transfected with EPAC1; format: cell-based; set-up: expressed in transfected cells; host or cells: U2OS cells (from Professor Holger Rehmann, University of Utrecht)
Method: as §1
Active Rap1 Pull-down. U2OS cells (from Professor Holger Rehmann, University of Utrecht) stably transfected with EPAC1 or EPAC2 were cultured in 6-well plates in DMEM, high glucose, supplemented with 10% (v/v) FBS, 1% (v/v) GlutaMAX, 1% (v/v) Penicillin-Streptomycin and 2 mg/l puromycin (to ensure selection of stable transfectants). 80% confluent cells were starved in culture medium with reduced FBS concentration (0.5 %) for 16 h and then stimulated for 10 min with either vehicle, 100 µM of studied compounds, or 50 µM of 2 in case of U2OS-EPAC1 or 100 µM of compound 4 for U2OS-EPAC2. Cells were then rinsed with ice-cold PBS and lysed in 0.5 ml cell lysis buffer (Cell Signaling Technologies) supplemented with 10 mM MgCl2 and 1 mM PMSF, followed by clearing the lysates by centrifugation. Cell lysates were incubated for 1 h (4° C., gentle agitation) with 40 µg GST-RalGDS-RBD immobilized on Glutathione Sepharose 4B (GE Healthcare) to selectively capture GTP-bound Rap1. Later on, the glutathione resin was separated from supernatant by centrifugation, washed three times with cell lysis buffer, then resuspended in 2x SDS sample loading buffer and denatured for 5 min at 95° C.
(§2) SDS-PAGE and Western Blotting. Samples were prepared by mixing equal volumes of cell lysate and 2x SDS sample loading buffer and denaturing for 5 min at 95° C., unless indicated otherwise. Protein samples were separated by SDS-PAGE on 10% (v/v) polyacrylamide gels, for EPAC1 and VASP, or on 12.5% (v/v), for Rap1, and then transferred to nitrocellulose membranes. Membranes were then blocked for 1 h at room temperature in 5% (w/v) non-fat dry milk or 5% (w/v) BSA in Tris-buffered saline containing 0.1% (v/v) Tween 20, followed by an overnight incubation with primary antibody diluted in blocking buffer at 4° C. Subsequently, the membranes were incubated with appropriate horseradish peroxidase-conjugated secondary antibodies for 1 h at room temperature. For signal detection the SuperSignal West Pico PLUS Chemiluminescent Substrate (Thermo Scientific) was used. Images were acquired using the Fusion FX7 camera platform (Vilber). Densitometry was performed with ImageJ.

PKA = PKA activation (VASP phosphorylation, western blot) in U2OS-EPAC1 cells; format: cell-based; conditions: 100 µM test compound, FIG. 5
Method: FIG. 5. PKA activation results of representative newly discovered EPAC1 agonists. U2OS cells stably transfected with EPAC1 were treated with 100 µM of test compounds, cyclic nucleotide EPAC1 agonist 2 or 10 µM of forskolin and rolipram (F/R), cyclic AMP elevating agents, as a positive control. Active, phosphorylated VASP (P-VASP) was visualized using a phospho-specific, anti-VASP antibody. None of the test compounds promoted VASP phosphorylation in cells.
PKA and GPCR Selectivity. To investigate the EPAC selectivity of these EPAC agonists, compounds 25g, 25n and 25q were selected for further PKA activation studies, and the results are shown in FIG. 5. PKA activation was assessed by monitoring phosphorylation state of a downstream PKA effector, vasodilator-stimulated phosphoprotein (VASP).
as §2

O=C(COc1ccc2ccccc2c1)NS(=O)(=O)c1ccc([N+](=O)[O-])c(F)c1 [Compound 25e, N-((3-Fluoro-4-nitrophenyl)sulfonyl)-2-(naphthalen-2-yloxy)acetamide]
IC50 values as EPAC1 binders (in words) (EPAC1-CNBD; summary statement): low micromolar to sub-micromolar | EPAC1 activity in GEF assay (EPAC1 [1]): promote EPAC1 activity more effectively than 25g, 25n and 25q | Rap1 activation in EPAC1 cells (EPAC1 [2]; U2OS-EPAC1, 100 µM compound, 10 min, FIG. 7): roughly equivalent to the positive control | selectivity: ability to activate EPAC1 over EPAC2 (ratio of EPAC1 to EPAC2 activation) (EPAC1 [2]; densitometry of Rap1-GTP immunoblots, U2OS-EPAC1 vs U2OS-EPAC2, FIG. 8): best selectivity | PKA activation (VASP phosphorylation) (PKA): unable to activate PKA

COc1ccc(S(=O)(=O)NC(=O)COc2ccc3ccccc3c2)cc1OC [Compound 25i, N-((3,4-Dimethoxyphenyl)sulfonyl)-2-(naphthalen-2-yloxy)acetamide]
RFI (%) (relative fluorescence intensity), Table 4 (EPAC1-CNBD): 50 ± 3%

Cc1cc(Br)cc(S(=O)(=O)NC(=O)COc2ccc3ccccc3c2)c1 [Compound 25j, N-((3-Bromo-5-methylphenyl)sulfonyl)-2-(naphthalen-2-yloxy)acetamide]
RFI (%) (relative fluorescence intensity), Table 4 (EPAC1-CNBD): 58 ± 2%

COc1ccc2ccc(OCC(=O)NS(=O)(=O)c3cc(C)cc(Br)c3)cc2c1 [Compound 25k, N-((3-Bromo-5-methylphenyl)sulfonyl)-2-((7-methoxynaphthalen-2-yl)oxy)acetamide]
RFI (%) (relative fluorescence intensity), Table 4 (EPAC1-CNBD): 29 ± 8%

COc1ccc2ccc(OCC(=O)NS(=O)(=O)c3cc(Cl)cc(Cl)c3)cc2c1 [Compound 25l, N-((3,5-Dichlorophenyl)sulfonyl)-2-((7-methoxynaphthalen-2-yl)oxy)acetamide]
RFI (%) (relative fluorescence intensity), Table 4 (EPAC1-CNBD): 54 ± 6%

COc1ccc2ccc(OCC(=O)NS(=O)(=O)c3ccc([N+](=O)[O-])cc3OC)cc2c1 [Compound 25m, N-((2-Methoxy-4-nitrophenyl)sulfonyl)-2-((7-methoxynaphthalen-2-yl)oxy)acetamide]
RFI (%) (relative fluorescence intensity), Table 4 (EPAC1-CNBD): 24 ± 2%

COc1ccc(OC)c(S(=O)(=O)NC(=O)COc2ccc3ccc(OC)cc3c2)c1 [Compound 25o, N-((2,5-Dimethoxyphenyl)sulfonyl)-2-((7-methoxynaphthalen-2-yl)oxy)acetamide]
RFI (%) (relative fluorescence intensity), Table 4 (EPAC1-CNBD): 49 ± 4%

COc1ccc2ccc(OCC(=O)NS(=O)(=O)c3ccc(OC)c(OC)c3)cc2c1 [Compound 25p, N-((3,4-Dimethoxyphenyl)sulfonyl)-2-((7-methoxynaphthalen-2-yl)oxy)acetamide]
RFI (%) (relative fluorescence intensity), Table 4 (EPAC1-CNBD): 23 ± 4%

Cc1cc(-c2cncc(F)c2)cc(S(=O)(=O)NC(=O)COc2ccc3ccccc3c2)c1 [Compound 25r, N-((3-(5-Fluoropyridin-3-yl)-5-methylphenyl)sulfonyl)-2-(naphthalen-2-yloxy)acetamide]
RFI (%) (relative fluorescence intensity), Table 4 (EPAC1-CNBD): 36 ± 3%

Cc1cc(-c2ccco2)cc(S(=O)(=O)NC(=O)COc2ccc3ccccc3c2)c1 [Compound 25s, N-((3-(Furan-2-yl)-5-methylphenyl)sulfonyl)-2-(naphthalen-2-yloxy)acetamide]
RFI (%) (relative fluorescence intensity), Table 4 (EPAC1-CNBD): 40 ± 1%

Cc1cc(-c2ccnn2C)cc(S(=O)(=O)NC(=O)COc2ccc3ccccc3c2)c1 [Compound 25t, N-((3-Methyl-5-(1-methyl-1H-pyrazol-5-yl)phenyl)sulfonyl)-2-(naphthalen-2-yloxy)acetamide]
RFI (%) (relative fluorescence intensity), Table 4 (EPAC1-CNBD): 34 ± 5%

Cc1cc(Nc2ccc(C(F)(F)F)cn2)cc(S(=O)(=O)NC(=O)COc2ccc3ccccc3c2)c1 [Compound 25v, N-((3-Methyl-5-((5-(trifluoromethyl)pyridin-2-yl)amino)phenyl)sulfonyl)-2-(naphthalen-2-yloxy)acetamide]
RFI (%) (relative fluorescence intensity), Table 4 (EPAC1-CNBD): 20 ± 3% | fold binding potency increase versus compound 3 (EPAC1-CNBD; from RFI at 10 µM): about 3 fold

Cc1ccc(S(=O)(=O)NC(=O)COc2ccc3ccccc3c2)cc1 [Compound 25w, 2-(Naphthalen-2-yloxy)-N-tosylacetamide]
RFI (%) (relative fluorescence intensity), Table 4 (EPAC1-CNBD): 44 ± 2%

O=C(COc1ccc2ccccc2c1)NS(=O)(=O)c1cccc([N+](=O)[O-])c1 [Compound 25x, 2-(Naphthalen-2-yloxy)-N-((3-nitrophenyl)sulfonyl)acetamide]
RFI (%) (relative fluorescence intensity), Table 4 (EPAC1-CNBD): 67 ± 3%

O=C(COc1ccc2ccccc2c1)NS(=O)(=O)c1ccccc1 [Compound 25y, 2-(Naphthalen-2-yloxy)-N-(phenylsulfonyl)acetamide]
RFI (%) (relative fluorescence intensity), Table 4 (EPAC1-CNBD): 49 ± 2%

COc1cccc(S(=O)(=O)NC(=O)COc2ccc3ccccc3c2)c1 [Compound 25z, N-((3-methoxyphenyl)sulfonyl)-2-(naphthalen-2-yloxy)acetamide]
RFI (%) (relative fluorescence intensity), Table 4 (EPAC1-CNBD): 33 ± 3%
